This note sets out measurements from US8354265B2, “Chemicals promoting the growth of N-acylhomoserine lactone-degrading bacteria” (Centre National de la Recherche Scientifique, priority 2007, dated 2013).

Assay [1] has as its system bacterial consortia from unplanted soil. Description: C6-HSL inactivation by bacterial consortia enriched from unplanted soil on the compound as sole carbon source. The conditions noted are these: soil and rhizospheric samples; among 25 assayed molecules. Type of assay: cell-based.
The test system of assay [2] is bacterial consortia originating from rhizospheric soil. The assay can be described thus: C6-HSL inactivation by bacterial consortia enriched from rhizospheric soil. Type of assay: cell-based.
For assay [3], the system named is soil bacterial consortia. Description: NAHL (C6-HSL, OC8-HSL) inactivation by soil consortia enriched on second set of compounds. The assay is classed as cell-based. As to conditions: C6-HSL 25 μM or OC8-HSL 200 nM. The method, then:
FIG. 4: Kinetics of NAHL inactivation by bacterial consortia. (A) NAHL is C6-HSL with an initial concentration of 25 μM (B) NAHL is 3-oxo-octanoylhomoserine lactone (OC8-HSL), with an initial concentration of 200 nM. The different bacterial consortia obtained after enrichment on the indicated compounds as a sole carbon source (mannitol is abbreviated as Man) were tested to for their capacity to inactivate NAHL signal. At each time (0, 1, 3 and 5 hrs), the uninoculated control (C) was used to estimate the percentage of residual NAHL.
Non sterile soil from the CNRS experimental field (Mérantaise) at Gif-sur-Yvette (France) was mixed with sterile sand Loire River and distributed into pots (20 cm in diameter). Some of them were sown with disinfected seeds of Nicotiana tabacum cv. Samson. Pots were randomly placed in the greenhouse (CNRS, Gif-sur-Yvette), under a long day conditions (16 h) at 17° C. (night) and 24° C. (day), and watered daily with tap water. One gram of unplanted or rhizospheric (3-months aged plants) soil was resuspended in 10 mL of sterile 0.8% NaCl. […] After a 3-days incubation at 25° C. under shaking (180 rpm), the cell cultures were diluted (1/50) into fresh AB media for an additional 2-days enrichment step. […]

Assay [4] deals with bacteria recovered from the consortia. The assay can be described thus: NAHL production and inactivation by isolates recovered from the consortia, with rrs identification. The assay is classed as cell-based. The conditions noted are these: for NAHL-producing bacteria among isolates of the consortia: 280 isolates from 280 independent enrichments.
Assay [5] deals with bacterial consortia. Description: Inactivation of C6-HSL and OC8-HSL by mannitol, 6CL, GCL and HTN consortia. Type of assay: cell-based. The text has this:
(§1) The Mannitol-, 6CL-, GCL-, and HTN-consortia were compared for their capacity to inactivated OC8-HSL, the major NAHL produced by the plant pathogen Erwinia carotovora subsp. atroseptica 6276, as well as for their biocontrol activity against this pathogen in potato maceration assay.

Assay [6] concerns Erwinia carotovora subsp. atroseptica 6276. Description: Maceration assay on potato tubers (biocontrol activity of consortia). The assay is classed as in vivo. As to conditions: potato tubers infected with mix of Erwinia carotovora 6276 and consortia.
Description: FIG. 6: Maceration assay on potato tubers.
as §1

Assay [7] deals with NAHL-degrading bacteria of potato rhizosphere. Description: HTN treatment on planted batches (FIG. 9). Type of assay: in vivo, Solanum tuberosum. The source says:
FIG. 9: Percentage of NAHL-degrading and NAHL-producing strains in potato rhizosphere after treatment with HTN. The percentage of NAHL degraders and NAHL producers was estimated among cultivable bacteria (cfu/g of fresh weight of roots), which were recovered from potato rhizospheres before the treatment (D0; white columns), 14 days (D14; dark grey columns), 28 days (D28; black columns) after the first treatment and 42 days after the first treatment, i.e., 14 days after the second treatment (D42; grey columns). The letters indicate statistically different values (Student's t-test; 0.05).
The non sterile batches (40×60×8 cm) contained 13 L of the nutritive solution Hydrobloom (Cellmax, UK) with Nitrogen at 0.80 g/L, Phosphore at 0.56 g/L and Potassium at 1.48 g/L as major components. The solution was diluted from a concentrated stock solution (×250) with non sterile water from the public water system. One hundred plants of Solanum tuberosum var. Allians, which were recovered from cultures performed under sterile conditions, were placed into holes (3 cm space to each other) of batch covers. […] Three samples were analyzed from each batch at each time D0, D14 and D28; from each sample, thirty isolates from TSA plates and thirty fluorescent isolates from King B plates were individually tested from production and inactivation of NAHL signal. […]

Assay [8] relates to NAHL-degrading rhizobacteria. Description: Diversity of NAHL-degrading rhizobacteria after HTN treatments, rrs sequencing (Table 3). Type of assay: in vivo, Solanum tuberosum. The text has this:
The 5′-end of the rrs gene was amplified with primers pA (5′-[…]) (SEQ ID NO:1) and 518r (5′-[…]) (SEQ ID NO:2), and sequenced with pA primer by GenomeExpress (Meylan, France). At least 400 bp were submitted to the NCBI database. Although some sequence comparisons authorized identification of isolates at the species level, only the genus level was retained in this study for homogeneity.
To analyze the impact of HTN on the diversity of NAHL-degrading strains, 50 NAHL-degrading strains were sampled from the third set of experiments, at the beginning of the experiments (D0) and after 14 and 42 days. The isolates were identified by rrs-sequencing (Table 3). At D0, all of the 5 NAHL-degrading isolates analyzed were identified as Agrobacterium. However, at D14 and D42, the Rhodococcus isolates dominated in treated batches, in which Delftia and Sinorhizobium were also detected

Each structure is given as a SMILES string. Entries after “also recorded” stand apart in the source; their conditions may differ.

In the case of `CCCC1CCC(=O)O1` (centres unmarked) [HTN, 4-heptanolide], in assay [1], the “growth stimulation of NAHL-degrading bacteria after enrichment procedures” value is recorded as “stimulated the growth of NAHL-degrading bacteria”. Moreover, the “activity of consortia towards C6-HSL (ranking)” value in assay [2] is “the most active”. Also, in assay [3], the “efficiency for obtaining NAHL-degrading consortia (ranking)” value is on record as “most efficient”. In assay [4], the “NAHL-inactivating bacteria recovered from consortia” value is recorded as “recovered” and the “NAHL-producing bacteria among isolates of the consortia” value (from here on “NAHL-producing bacteria among isolates”) is recorded as “none”. The “NAHL-degrading isolates belonging to the Rhodococcus genus” value in assay [4] (HTN consortia, rrs sequence) is “All seventeen”. Also, in assay [5], the “speed of C6-HSL signal inactivation versus Mannitol consortia” value is listed as “inactivated more rapidly” and the “speed of OC8-HSL signal inactivation versus Mannitol consortia” value was “inactivated more rapidly”. Moreover, the “biocontrol activity of the consortia against E. carotovora 6276” value in assay [6] is “biocontrol activity was observed; also recorded: showed biocontrol activity”. In assay [7] (0.1 and 0.4 mL/L, second treatment at day 28, D14, D28, D42), the “ability to stimulate the growth of NAHL-degrading bacteria” value is reported as “confirmed the ability of HTN to stimulate the growth of NAHL-degrading bacteria”. In assay [7] (applied to hydroponic plant cultures (FIG. 9)), the “percentage of NAHL-degrading bacteria among total cultivable bacteria” value is given as “significant increase”. The “Rhodococcus isolates among NAHL-degrading isolates in treated batches” value in assay [8] (D14 and D42) is given as “dominated”. For the same molecule, in assay [8] (D 14 and D 42, 0.1 mL/L), the “rrs-identified NAHL-degraders: Delftia” value is given as 1 and the “rrs-identified NAHL-degraders: Rhodococcus” value worked out at 16. Further, in assay [8] (D 14 and D 42, 0.4 mL/L), the “rrs-identified NAHL-degraders: Rhodococcus” value is reported as 27 and the “rrs-identified NAHL-degraders: Sinorhizobium” value came out at 1.

Take `OCC1CCCO1` (centres unmarked) [THA, tetrahydrofurfuryl alcohol]: in assay [2], the “activity of consortia towards C6-HSL (ranking)” value is given as “the most active”. For the same molecule, in assay [4], the “NAHL-inactivating bacteria recovered from consortia” value is given as “recovered” and the “NAHL-producing bacteria among isolates” value was 13 % of the tested strains.

Regarding `O=C1CCCO1` [GBL, gamma-butyrolactone], the “NAHL-producing bacteria among isolates” value in assay [4] is 12 % of the tested strains.

In the case of `OC[C@@H](O)[C@@H](O)[C@H](O)[C@H](O)CO` [Mannitol, mannitol, reference compound], the “NAHL-producing bacteria among isolates” value in assay [4] was 10 % of the tested strains. Further, in assay [6], the “biocontrol activity of the consortia against E. carotovora 6276” value is “did not”.

As for `C1CCOC1` [THF, tetrahydrofurane], in assay [4], the “NAHL-inactivating bacteria recovered from consortia” value was “recovered” and the “NAHL-producing bacteria among isolates” value was 41 % of the tested strains.

In the case of `CCCCC1CCC(=O)O1` (centres unmarked) [GOL, gamma-octalactone], the “growth stimulation of NAHL-degrading bacteria after enrichment procedures” value in assay [1] is on record as “stimulated the growth of NAHL-degrading bacteria”. In addition, the “efficiency for obtaining NAHL-degrading consortia (ranking)” value in assay [3] is listed as “most efficient”.
